In patent publication US20090048285A1, “Pyrrolopyridines Useful in the Treatment of Inflammation” (priority 2005, published 2009):

Biological target: T1, mPGES-1 (Homo sapiens, UniProt O14684)
T1 construct: made in house; host or cells: E. coli (membrane fraction)
T1 sequence (O14684 1-152): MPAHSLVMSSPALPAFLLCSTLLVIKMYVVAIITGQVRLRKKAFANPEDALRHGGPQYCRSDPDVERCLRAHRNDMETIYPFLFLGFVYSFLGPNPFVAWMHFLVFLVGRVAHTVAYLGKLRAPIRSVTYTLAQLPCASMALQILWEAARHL
Experiment: mPGES-1 assay: conversion of PGH2 to PGE2, HPLC analysis
Type: biochemical
Details: mPGES-1 expressed in E. coli; 25 min preincubation with inhibitor, 60 s with PGH2, room temperature
Protocol: In the assay in PGES-1 catalyses the reaction where the substrate PGH2 is converted to PGE2. mPGES-1 is expressed in E. coli and the membrane fraction is dissolved in 20 mM NaPi-buffer pH 8.0 and stored at −80° C. In the assay mPGES-1 is dissolved in 0.1M KPi-buffer pH 7.35 with 2.5 mM glutathione. The stop solution consists of H2O/MeCN (7/3), containing FeCl2 (25 mM) and HCl (0.15 M). The assay is performed at room temperature in 96-well plates. Analysis of the amount of PGE2 is performed with reversed phase HPLC (Waters 2795 equipped with a 3.9×150 mm C18 column). The mobile phase consists of H2O/MeCN (7/3), containing TFA (0.056%), and absorbance is measured at 195 nm with a Waters 2487 LTV-detector.
The following is added chronologically to each well: • 1. 100 μL mPGES-1 in KPi-buffer with glutathione. Total protein concentration: 0.02 mg/mL. • 2. 1 μL inhibitor in DMSO. Incubation of the plate at room temperature for 25 minutes. • 3. 4 μL of a 0.25 mM PGH2 solution. Incubation of the plate at room temperature for 60 seconds. • 4. 100 μL stop solution. • 180 μL per sample is analyzed with HPLC.

Row | IC50 [nM] | SMILES
1 | 2300 | CC(C)Oc1ccc(-n2c(C(=O)O)cc3cc(Oc4cccc(C(F)(F)F)c4)ncc32)cc1 [Example 1, 1-(4-Isopropoxyphenyl)-5-(3-trifluoromethylphenoxy)pyrrolo[2,3-c]pyridine-2-carboxylic Acid]
2 | 750 | CC(C)Oc1ccc(-n2c(C(=O)O)cc3c(-c4ccc(C(F)(F)F)cc4)nc(Cl)cc32)cc1 [Example 3, 6-Chloro-1-(4-isopropoxyphenyl)-4-(4-trifluoromethylphenyl)pyrrolo[3,2-c]pyridine-2-carboxylic acid]
